In patent US9206125B2, “Use of compound binding to mSin3B that specifically binds to neuron restrictive silencer factor (NRSF)” (PUBLIC UNIVERSITY CORPORATION YOKOHAMA CITY UNIVERSITY, priority 2010, dated 2015):
One block for each compound: values may come before it.

Legend:
[1] = test system: DAOY (human medulloblastoma cell strain); test: MTT assay, growth inhibition against human medulloblastoma cells (Example 3); assay type: cell-based; parameters: dose or concentration left out as unconfirmed; settings: final concentration 200
Procedure: Compounds: No. 5, No. 15, No. 23, NCR 6, NCR 7, NCR 11, NCR 13, NCR 14, NCR 15
Cell: DAOY (human medulloblastoma cell strain)
(§1) Medium: DMEM (High Glucose, Nacalai Tesque)
Reagent for cell counting: MTT cell counting kit (Nacalai Tesque) *Hereinafter, referred to as MTT assay.
DAOY was plated on three 96-well plates at 5×10^3 cells/well. These three plates were for use on day 0, day 1 and day 3, respectively. As a medium, 10% FBS-containing DMEM was used.
The medium in the plate for day 0 was exchanged with 5% FBS-containing DMEM, and cells were cultured therein for 30 minutes. Then, MTT assay was carried out to measure the activity at the basal cell count.
With respect to the plates for day 1 and day 3, the medium was exchanged with 5% FBS-containing medium, and the compound was added simultaneously at this time (as a control, DMSO (the solvent) alone was added).
MTT assay was carried out using the plate for day 1.
MTT assay was carried out using the plate for day 3.
Relative growths on day 1 and day 3 were calculated, with the average of MTT activities (Ab 570 nm) […] in the rows of wells for the respective compounds being taken as 100. Each experiment was performed in quadruple.
Statistical test was performed by compound-treated cells and DMSO-treated cells.

[2] = test system: neuropathic pain model by partial sciatic nerve ligation; test: Electrical stimulation-induced paw withdrawal (EPW) test, hypoesthesia after nerve injury; assay type: in vivo, C57BL male mice; settings: 0.5 nmol i.t. once per day from 3 days after nerve injury; observed 4 and 5 days after injury
[3] = test system: neuropathic pain model by partial sciatic nerve ligation; test: Thermal paw withdrawal test, morphine resistance after nerve injury; assay type: in vivo, C57BL male mice; settings: compound 0.5 nmol i.t. from 3 days after injury; morphine 30 nmol i.pl. 5 days after injury
[4] = test system: DAOY (human medulloblastoma cell strain); test: MTT assay using a human medulloblastoma cell strain (Example 2, relative growth); assay type: cell-based; settings: DAOY cells
Excerpt: Cell growth effects were examined on 3,5-dimethylpiperidyl 3-methyl-4-nitrophenyl ketone (compound 155) and 1-[4-(difluoromethoxy)phenyl]-2-(3,5-dimethylpiperidyl)ethan-1-one (compound A28) (MTT assay using a human medulloblastoma cell strain).
Compounds: 3,5-dimethylpiperidyl 3-methyl-4-nitrophenyl ketone (compound 155) (purchased from SPECS); 1-[4-(difluoromethoxy)phenyl]-2-(3,5-dimethylpiperidyl)ethan-1-one (compound A28) (purchased from Enamine)
Cell: DAOY (human medulloblastoma cell strain) (provided by Kanno, Department of Neurosurgery, School of Medicine, Yokohama City University)
as §1
Reagent for cell counting: MTT cell counting kit (Nacalai Tesque) MTT Assay: (operations)
Day −1: DAOY was plated on three 96-well plates at 5×10^3 cells/well. These three plates were for use on day 0, day 1 and day 3, respectively. As a medium, 10% FBS-containing DMEM was used.
Day 0: MTT assay was carried out using the plate for day 0 to measure the activity at the basal cell count. With respect to the plates for day 1 and day 3, the compound was added to give a concentration of 100 μg/ml (as controls, DMEM alone and DMEM containing DMSO (solvent) were used). Specifically, the compound-containing DMEM was prepared in advance, and the compound was added to the plate through medium exchange. At this time, FBS concentration was lowered to 5% in order to prevent the masking of the compound's effect due to excessive growth signals. Day 1: MTT assay was carried out using the plate for day 1. Day 3: MTT assay was carried out using the plate for day 3. Data Analysis: Relative growths on day 1 and day 3 were calculated, with the average of MTT activities (Ab 570 nm) on day 0 in the rows of wells for addition of the respective compounds being taken, as 100.
Each experiment was performed in quadruple and each run was repeated three times. Relative values based on the values of day 0 were used to calculate data for n=12 wells and statistical tests were performed.
Test was by t-test between the cell count with DMEM alone and the cell count with the compound or DMSO.
MIT Assay: A technique for cell counting using the respiratory activity of mitochondria as an indicator. When the respiratory activity is high (the value at Ab 570 nm is high), it can be interpreted that the cell count is large.

[5] = test system: Nav 1.8; test: Quantitative real time PCR of Nav 1.8 mRNA in dorsal root ganglia after nerve injury; assay type: in vivo, C57BL male mice; settings: 0.5 nmol i.t., single administration 3 days after nerve injury
[6] = test system: MOP; test: Quantitative real time PCR of MOP mRNA in dorsal root ganglia after nerve injury; assay type: in vivo, C57BL male mice; settings: 0.5 nmol i.t., single administration 3 days after nerve injury; 3, 6 and 12 hours after administration; n=3; tendency
[7] = Day 0, basal cell count before compound addition
[8] = Day 1, compound 100 μg/ml, 5% FBS DMEM

melting point: 113.5 to 115.4 °C
SMILES: CC1CC(C)CN(C(=O)c2ccc(Cl)cc2)C1 (stereo not drawn) [NCR-11, 3,5-Dimethyl-1-(4-Chlorobenzoyl)piperidine]

melting point: 132.7 to 138.5 °C
SMILES: Cc1cc(S(=O)(=O)N2CC(C)CC(C)C2)ccc1[N+](=O)[O-] (stereo not drawn) [NCR-12, 3,5-Dimethyl-1-[(3-Methyl-4-Nitrophenyl)sulfonyl]piperidine]

melting point: 107.6 to 109.7 °C
SMILES: Cc1cc(C(=O)N(C(C)C)C(C)C)ccc1[N+](=O)[O-] [NCR-15, N,N-Diisopropyl-3-Methyl-4-Nitrobenzamide]

melting point: 99.7 to 100.5 °C
SMILES: Cc1cc(C(=O)N2C(C)CCCC2C)ccc1[N+](=O)[O-] (stereo not drawn) [NCR-17, 2,6-Dimethyl-1-(3-Methyl-4-Nitrobenzoyl)piperidine]

melting point: 105.8 to 108.7 °C
SMILES: Cc1cc(C(=O)N(Cc2ccccc2)Cc2ccccc2)ccc1[N+](=O)[O-] [NCR-18, N,N-Dibenzyl-3-Methyl-4-Nitrobenzamide]

melting point: 61.3 to 61.9 °C
SMILES: Cc1cc(C(=O)N2CCCC2)ccc1[N+](=O)[O-] [NCR-19, 1-(3-Methyl-4-Nitrobenzoyl)pyrrolidine]

melting point: 134.2 to 141 °C
SMILES: Cc1cc(C(=O)NC2CCCCC2)ccc1[N+](=O)[O-] [NCR-22, N-Cyclohexyl-3-Methyl-4-Nitrobenzamide]

Continued, compound first:

SMILES: Cc1cc(CN2CC(C)CC(C)C2)ccc1[N+](=O)[O-] (stereo not drawn) [NCR 7, 3,5-Dimethyl-1-(3-Methyl-4-Nitrobenzyl)piperidine]
cytotoxicity (MTT assay) [1]: cytotoxicity was observed

SMILES: CC1CC(C)CN(C(=O)c2ccc([N+](=O)[O-])cc2)C1 (stereo not drawn) [NCR-2, 3,5-Dimethyl-1-(4-Nitrobenzoyl)piperidine]
melting point: 120 to 125 °C

SMILES: Cc1cc(C(=O)N2CCCC(C)C2)ccc1[N+](=O)[O-] (stereo not drawn) [NCR-3, 3-Methyl-1-(3-Methyl-4-Nitrobenzoyl)piperidine]
melting point: 82 to 82.8 °C

SMILES: CC1CCCN(C(=O)c2ccc([N+](=O)[O-])cc2)C1 (stereo not drawn) [NCR-4, 3-Methyl-1-(4-Nitrobenzoyl)piperidine]
melting point: 70.2 to 71.3 °C

SMILES: CC1CC(C)CN(C(=O)c2ccccc2)C1 (stereo not drawn) [NCR-6, 1-(Benzoyl)-3,5-Dimethyl piperidine]
melting point: 107.2 to 108.7 °C

SMILES: Cc1cc(C(=O)N2CCCCC2)ccc1[N+](=O)[O-] [NCR-8, 1-(3-Methyl-4-Nitrobenzoyl)piperidine]
melting point: 71.7 to 72.2 °C

SMILES: CCN(CC)C(=O)c1ccc([N+](=O)[O-])c(C)c1 [NCR-9, N,N-Diethyl-3 Methyl-4-Nitrobenzamide]
melting point: 74.5 to 76 °C

SMILES: CC(C)CCNC(=O)CCC(=O)NCc1ccc(F)cc1 [compound 106, N-[(4-fluorophenyl)methyl]-N′-(3-methylbutyl)butane-1,4-diamide]
effect on hypoesthesia (pain threshold in response to C-fiber stimulation), EPW test [2]: no effect on pain threshold
peripheral morphine analgesia after nerve injury, thermal paw withdrawal test [3]: morphine analgesia was hardly recognized

SMILES: Cc1cc(C(=O)N2CC(C)CC(C)C2)ccc1[N+](=O)[O-] (stereo not drawn) [compound 155, 3,5-dimethylpiperidyl 3-methyl-4-nitrophenyl ketone]
Relative Growth (MTT activity, Ab 570 nm, day 0 average taken as 100) [4, 7]: 100.00 ± 5.08
Relative Growth (MTT activity, Ab 570 nm, day 0 average taken as 100) [4, 8]: 123.16 ± 10.03
Relative Growth (MTT activity, Ab 570 nm, day 0 average taken as 100) ([4]; Day 3, compound 100 μg/ml, 5% FBS DMEM): 105.07 ± 17.53

SMILES: CC1CC(C)CN(CC(=O)c2ccc(OC(F)F)cc2)C1 (stereo not drawn) [compound A28, 1-[4-(difluoromethoxy)phenyl]-2-(3,5-dimethylpiperidyl)ethan-1-one]
Relative Growth (MTT activity, Ab 570 nm, day 0 average taken as 100) [4, 7]: 100.00 ± 6.56
Relative Growth (MTT activity, Ab 570 nm, day 0 average taken as 100) [4, 8]: 233.28 ± 1.69
time needed for the effect on Nav 1.8 and MOP expression to appear [5]: 3 to 6 h
recovery of the lowering of expression of Nav 1.8 after nerve injury ([5]; 3, 6 and 12 hours after administration, n=3, tendency): 10-15%
recovery of the lowering of expression of MOP after nerve injury [6]: 10-15%
